# Data: patent US9073965B2, “Adiponectin receptor agonists and methods of use” (TEMPLE UNIVERSITY—OF THE COMMONWEALTH SYSTEM OF HIGHER …, priority 2011, dated 2015)
# Non-standard residues stand in square brackets, D forms with d. Residues, ends and D or L forms follow the SMILES beside them. Nva = CCC[C@H](N)C(=O)O; βAla = NCCC(=O)O
# How the values were obtained:
# [1] = system: MCF-7 breast cancer cells
# Description: The MCF-7 breast cancer cell line was obtained from ATCC (Manassas, Va.) and routinely grown in DMEM:F12 plus 5% calf serum (Cellgro Mediatech, Manassas, Va.) at 37° C., 5% CO2. For screening experiments, MCF-7 cells were plated in 24-well plates at the concentration of 30,000 cells/well. After 12 h of culture in the growth medium, the cells were synchronized in serum-free medium (SFM) (DMEM:F12 supplemented with 0.42 g/mL bovine serum albumin, 1 mM FeSO4 and 2 mM L-glutamine) for 24 h and then shifted back to the full growth medium containing either gAd (Phoenix Secretomics, Burlingame, Calif.) at 50 ng/mL, individual peptides, or no test compounds for 24 h. At conclusion of proliferation assays, the cells were counted under the microscope with trypan-blue exclusion. Each experiment was performed in triplicate and repeated at least three times.
# ERK1/2 = assay: Signaling analysis by Western blot: ERK1/2 phosphorylation; type: cell-based
# Description: The analysis was done using MCF-7 and MDA-MB-231 breast cancer cells and in LN18 glioblastoma cells. The cells at 70-80% confluence were shifted to SFM for 24 h, then SFM was removed, the cultures were washed 2× with PBS, placed in normal growth medium for 1 h, and then treated with ADP 355-NH2 at 100 nM (MCF-7 cells) or 10 μM (MDA-MB-231 and LN 18 cells) concentration for 0-60 min, while gAd at 50 ng/mL was applied for 60 min only. Untreated cells were used as negative control. After the treatment, cells were lysed as previously described and 100 μg of proteins were analyzed by Western blot for the expression of phosphorylated (p) and total forms of several signaling molecules. Bartella V, et al. Cancer Res 2008, 68(12):4919-4927. Garofalo C, et al. Clin Cancer Res 2004, 10(10):6466-6475. The following primary antibodies (Abs) from Cell Signaling (Danvers, Mass.) were used: 1) pAMPK alpha (T172) D79.5E rabbit mAb 1: 750; 2) total AMPK alpha antibody rabbit mAb 1:1000 in; 3) p44/42 MAPK (T202/Y204) rabbit mAb 1:1000; 4) total 44/42 MAP kinase antibody rabbit mAb 1:1000; 5) pStat3 (Y705) D3A7 rabbit mAb 1: 500; 6) total Stat3 79D7 rabbit mAb 1:2000; 7) pAkt (Ser 473) rabbit mAb 1:1000; 8) total Akt rabbit mAb 1:1000; 9) AdipoR1 rabbit purified anti-serum 1:500 (Phoenix Secretomics). […]
# [2] = Peptide stability in whole mouse blood; type: in vitro ADME; settings: after 30 min at 37° C., mass spectroscopy
# Description: (§1) Sixty μg of ADP 355-NH2 were dissolved in 100 μL water, and 10 μL aliquots were mixed with 100 μL of freshly drawn mouse blood. After 30 min of incubation at 37° C. the cells were centrifuged at 10,000×g. Fifty μL serum was mixed with 50 μL phosphate buffered saline pH 6.8 (PBS), and the serum proteins were precipitated by addition of 45 μL aqueous 15% trichloroacetic acid (TCA) for 10 min at 4° C. After centrifugation at 12,000×g the supernatant was neutralized with 0.1 M aqueous sodium hydroxide and 0.5 μL of this solution was mixed with 0.5 μL α-cyano-4-hydroxycinnamic acid (4 mg/mL in 60% aqueous acetonitrile containing 0.1% TFA) as matrix on a sample plate. Analysis was performed on a MALDI time-of-flight tandem mass spectrometer (MALDITOF/TOF-MS, 4700 proteomic analyzer, Applied Biosystems, Weiterstadt, Germany). Additionally, the neutralized supernatant was loaded on a Jupiter C18 RP-HPLC column (4.6 mm internal diameter, 150 mm length, 5 μm particle size, 30 nm pore size; Phenomenex) that had previously been calibrated with known amounts of peptide ADP 355-NH2 dissolved in PBS. Absorbance was measured at 214 nm. Peptide ADP 355-NH2 was incubated at 37° C. with 25% aqueous mouse serum at a final concentration of 150 μg/mL. After 0, 15, 30, 60, 120, and 240 min 95 μL aliquots were mixed with 25 μL 15% aqueous TCA and were incubated for 10 min at 4° C. […]
# STAT3 = assay: Signaling analysis by Western blot: STAT3 phosphorylation; type: cell-based; settings: for STAT3 phosphorylation: 10 μM
# Description: (§2) The analysis was done using MCF-7 and MDA-MB-231 breast cancer cells and in LN18 glioblastoma cells. The cells at 70-80% confluence were shifted to SFM for 24 h, then SFM was removed, the cultures were washed 2× with PBS, placed in normal growth medium for 1 h, and then treated with ADP 355-NH2 at 100 nM (MCF-7 cells) or 10 μM (MDA-MB-231 and LN 18 cells) concentration for 0-60 min, while gAd at 50 ng/mL was applied for 60 min only. Untreated cells were used as negative control. After the treatment, cells were lysed as previously described and 100 μg of proteins were analyzed by Western blot for the expression of phosphorylated (p) and total forms of several signaling molecules. Bartella V, et al. Cancer Res 2008, 68(12):4919-4927. Garofalo C, et al. Clin Cancer Res 2004, 10(10):6466-6475. The following primary antibodies (Abs) from Cell Signaling (Danvers, Mass.) were used: 1) pAMPK alpha (T172) D79.5E rabbit mAb 1: 750; 2) total AMPK alpha antibody rabbit mAb 1:1000 in; 3) p44/42 MAPK (T202/Y204) rabbit mAb 1:1000; 4) total 44/42 MAP kinase antibody rabbit mAb 1:1000; 5) pStat3 (Y705) D3A7 rabbit mAb 1: 500; 6) total Stat3 79D7 rabbit mAb 1:2000; 7) pAkt (Ser 473) rabbit mAb 1:1000; 8) total Akt rabbit mAb 1:1000; 9) AdipoR1 rabbit purified anti-serum 1:500 (Phoenix Secretomics). Protein loading was verified by evaluating the expression of either a constitutive enzyme glyceraldehyde-3-phosphate dehydrogenase (GAPDH) using 6C51 mAbs 1:1000 (Santa Cruz Biotechnology, CA, USA) or alpha-actin using the actin I-19 goat polyclonal Ab (Santa Cruz) 1: 200. The following secondary Abs (Santa Cruz) were used 1) donkey anti-goat IgG-HRP; 2) goat anti-mouse IgG-HRP; 3) goat anti-rabbit IgG-HRP, all applied at 1:1000 dilution.
# LN18 glioblastoma cells = assay: Cell growth experiments, cell counting; type: cell-based
# Description: (§3) Biological activity of the peptides was first assessed using MCF-7 breast cancer cells that express AdipoR1. Arditi J D, Venihaki M, Karalis K P, Chrousos G P Horm Metab Res 2007, 39(1):9-13. The MCF-7 breast cancer cell line was obtained from ATCC (Manassas, Va.) and routinely grown in DMEM:F12 plus 5% calf serum (Cellgro Mediatech, Manassas, Va.) at 37° C., 5% CO2. For screening experiments, MCF-7 cells were plated in 24-well plates at the concentration of 30,000 cells/well. After 12 h of culture in the growth medium, the cells were synchronized in serum-free medium (SFM) (DMEM:F12 supplemented with […] bovine serum albumin, 1 mM FeSO4 and 2 mM L-glutamine) for 24 h and then shifted back to the full growth medium containing either gAd (Phoenix Secretomics, Burlingame, Calif.) at 50 ng/mL, individual peptides, or no test compounds for 24 h. At conclusion of proliferation assays, the cells were counted under the microscope with trypan-blue exclusion. Each experiment was performed in triplicate and repeated at least three times. ADP 25-β-AlaNH2, ADP 91-β-AlaNH2, ADP 157-β-AlaNH2, ADP 223-β-AlaNH2, ADP 289-β-AlaNH2 and ADP 355-β-AlaNH2 were solubilized at 65° C. for 30 min and were further purified by RP-HPLC and screened together with the individually synthesized adiponectin peptides at the exact concentration of 50 ng/mL.
# (§4) The effects of the selected peptide ADP 355-NH2 on cell proliferation were tested in breast cancer cell lines (MCF-7, MDA-MB-231) and in glioblastoma cells (LN18), all obtained from ATCC and routinely cultured as described previously. Otvos L, Jr., et al. European J Cancer 2011, 47(10):1578-1584. Riolfi M, et al. Brain Pathol 2010, 20(2):481-489. Bartucci M, et al. Cancer Res 2001, 61(18):6747-6754. The peptide was tested at 10 pM-100 μM concentrations under conditions described above under peptide screening.
# [3] = system: MDA-MB-231 breast cancer cells; assay: Cell growth experiments, cell counting; type: cell-based; settings: MDA-MB-231 cells
# Description: as §3, §4
# Akt = assay: Signaling analysis by Western blot: Akt; type: cell-based
# Description: as §2
# [4] = Peptide stability in mouse serum; type: in vitro ADME; settings: 25% aqueous mouse serum, calculated from degradation rate in 25% aqueous serum, 37° C., data not shown
# Description: as §1
# female CBA/J mice = assay: In vivo toxicity, bolus ip; settings: for Kidney weight / Kidney weight relative to total weight (%) / Liver weight / Liver weight relative to total weight (%) / Spleen weight: day 5
# Description: On day 5 the mice were killed by CO2 inhalation and the potential peptide elimination organs, the livers, spleens and kidneys were removed and weighed.
# AMPK = assay: Signaling analysis by Western blot: AMPK phosphorylation; type: cell-based
# Description: as §2
# [5] = LN 18 cells, compared with 1 μM
# [6] = MDA-MB-231 cells, 10 μM, 0-60 min
# [7] = four days after ip administration, vs untreated
compound,measurement,setting,value
"CC[C@H](C)[C@H](NC(=O)[C@@H](N)CC(N)=O)C(=O)N1CCC[C@H]1C(=O)NCC(=O)N[C@@H](CC(C)C)C(=O)N[C@@H](Cc1ccc(O)cc1)C(=O)N[C@@H](Cc1ccc(O)cc1)C(=O)N[C@@H](Cc1ccccc1)C(=O)N[C@@H](C)C(=O)N[C@@H](Cc1ccc(O)cc1)C(=O)NCCC(N)=O [ADP 25-β-AlaNH2, Asn-Ile-Pro-Gly-Leu-Tyr-Tyr-Phe-Ala-Tyr-β-AlaNH2] (H-NIPGLYYFAY[βAla]-NH2; N-terminus assumed)",biological activity in cancer cell growth inhibition assays,[1]; 50 ng/mL,fully active
same,Cytostatic Activity of Original Peptide vs. gAd (% Increase),"[1]; MCF-7 cells, 50 ng/mL, relative to 50 ng/mL gAd (baseline)",11%
"CCC[C@H](NC(=O)[C@@H]1CCCN1C(=O)[C@@H](NC(=O)[C@H](N)CC(N)=O)[C@@H](C)CC)C(=O)N[C@@H](CC(C)C)C(=O)N[C@@H](Cc1ccc(O)cc1)C(=O)N[C@H](CO)C(=O)N[C@@H](Cc1ccccc1)C(=O)N[C@@H](C)C(=O)N[C@H](CO)C(N)=O [ADP 355-NH2, D-Asn-Ile-Pro-Nva-Leu-Tyr-D-Ser-Phe-Ala-D-Ser-NH2] (H-[dN]IP[Nva]LY[dS]FA[dS]-NH2)",ERK1/2 phosphorylation,"ERK1/2; MCF-7 cells, 100 nM, at 60 min",decreased
same,ERK1/2 pathway,"ERK1/2; MDA-MB-231 cells, 10 μM, at 30 and 60 min",significantly inhibited
same,stability in whole mouse blood,[2],without noticeable degradation
same,STAT3 phosphorylation,"STAT3; LN18 cells, at 15-60 min",decreased
same,phosphorylation of STAT3,"STAT3; MCF-7 cells, 100 nM, at 15-60 min",increased
same,STAT3 phosphorylation,"STAT3; MDA-MB-231 cells, at 15 and 30 min",transiently increased
same,cytostatic effect at maximal effective doses compared with gAd at 50 ng/mL,LN18 glioblastoma cells; LN18 cells,greater cytostatic effects
same,effect on normal cell growth,"LN18 glioblastoma cells; LN18 cells, 10 pM-100 μM",restricted normal cell growth in a dose-dependent manner
same,growth inhibition at 10 μM,LN18 glioblastoma cells; [5],further activity increase
same,growth inhibition at 100 μM,LN18 glioblastoma cells; [5],less inhibitory
same,cytostatic effect at maximal effective doses compared with gAd at 50 ng/mL,[3],greater cytostatic effects
same,effect on normal cell growth,[3]; 10 pM-100 μM,restricted normal cell growth in a dose-dependent manner
same,growth inhibition at 10 μM,[3]; compared with 1 μM,further activity increase
same,growth inhibition at 100 μM,[3]; compared with 1 μM,less inhibitory
same,total and phosphorylated levels of Akt,"Akt; LN18 cells, 10 μM, at 15-60 min",down-regulated
same,activation of Akt,"Akt; MCF-7 cells, 100 nM, 0-60 min",did not affect
same,Akt activation,Akt; [6],did not affect
same,half-life at 150 μg/mL,[4],1.25 h
same,Kidney weight,female CBA/J mice; 5 mg/kg bolus ip,0.30 g
same,Kidney weight relative to total weight (%),female CBA/J mice; 5 mg/kg bolus ip,1.6%
same,Liver weight,female CBA/J mice; 5 mg/kg bolus ip,1.02 g
same,Liver weight relative to total weight (%),female CBA/J mice; 5 mg/kg bolus ip,5.4%
same,Spleen weight,female CBA/J mice; 5 mg/kg bolus ip,0.07 g
same,Kidney weight,female CBA/J mice; 10 mg/kg bolus ip,0.29 g
same,Kidney weight relative to total weight (%),female CBA/J mice; 10 mg/kg bolus ip,1.6%
same,Liver weight,female CBA/J mice; 10 mg/kg bolus ip,1.09 g
same,Liver weight relative to total weight (%),female CBA/J mice; 10 mg/kg bolus ip,5.9%
same,Spleen weight,female CBA/J mice; 10 mg/kg bolus ip,0.06 g
same,Kidney weight,female CBA/J mice; 25 mg/kg bolus ip,0.35 g
same,Kidney weight relative to total weight (%),female CBA/J mice; 25 mg/kg bolus ip,1.7%
same,Liver weight,female CBA/J mice; 25 mg/kg bolus ip,1.24 g
same,Liver weight relative to total weight (%),female CBA/J mice; 25 mg/kg bolus ip,5.9%
same,Spleen weight,female CBA/J mice; 25 mg/kg bolus ip,0.07 g
same,Kidney weight,female CBA/J mice; 50 mg/kg bolus ip,0.31 g
same,Kidney weight relative to total weight (%),female CBA/J mice; 50 mg/kg bolus ip,1.7%
same,Liver weight,female CBA/J mice; 50 mg/kg bolus ip,1.07 g
same,Liver weight relative to total weight (%),female CBA/J mice; 50 mg/kg bolus ip,6.2%
same,Spleen weight,female CBA/J mice; 50 mg/kg bolus ip,0.07 g
same,spleen size compared with untreated control mice,female CBA/J mice; four days after ip administration,identical in size
same,increase of kidney size relative to total body weight,female CBA/J mice; [7],2%
same,increase of liver size relative to total body weight,female CBA/J mice; [7],8%
same,"signs of systemic toxicity (tremor, head tilt, reduced activity, squinting)","female CBA/J mice; up to 50 mg/kg ip bolus, observed for 4 days",no signs of systemic toxicity
same,AMPK modulation,"AMPK; LN18 cells, 10 μM, 0-60 min",did not modulate
same,phosphorylation of AMPK,"AMPK; MCF-7 cells, 100 nM, at 15 and 30 min",increased
same,AMPK activation,AMPK; [6],did not affect
same,concentration up to which the growth inhibitory activity was maintained,[1]; MCF-7 cells,up to 10 μM
same,cytostatic effect at maximal effective doses compared with gAd at 50 ng/mL,[1]; MCF-7 cells,greater cytostatic effects
same,peptide concentration at which the best growth inhibition was achieved,[1]; MCF-7 cells,100 nM
same,effect on normal cell growth,"[1]; MCF-7 cells, 10 pM-100 μM",restricted normal cell growth in a dose-dependent manner
same,growth inhibition at 10 pM-10 nM,"[1]; MCF-7 cells, compared with 100 nM",less effective
